Tests used:
[1] = tested on: SK-BR3; settings: Breast
[2] = tested on: LN-caP; assay: cells; settings: Homo sapiens, LNCaP; for GI50: read-out: GI50 LN-caP; for CC50: read-out: LC50 LN-caP
[3] = tested on: DU-145; assay: cells; settings: Homo sapiens; for GI50: DU-145, read-out: GI50 DU-145; for CC50: DU-145, read-out: LC50 DU-145
[4] = tested on: HELA; assay: cells; settings: Homo sapiens; for GI50: read-out: GI50 HELA; for CC50: read-out: LC50 HELA
[5] = tested on: SK-BR3; assay: cells; settings: Homo sapiens; for GI50: SK-BR-3, read-out: GI50 SK-BR3; for CC50: SK-BR-3, read-out: LC50 SK-BR3
[6] = tested on: K-562; settings: Leukemia
[7] = tested on: IGROV-ET; settings: Ovary
[8] = tested on: LOVO; settings: Colon
[9] = tested on: PANC1; settings: Pancreas
[10] = tested on: SK-MEL-28; settings: Melanoma
[11] = tested on: LOVO; assay: cells; settings: Homo sapiens; for GI50: read-out: GI50 LOVO; for CC50: read-out: LC50 LOVO
[12] = tested on: A549; assay: cells; settings: Homo sapiens; for GI50: A549, read-out: GI50 A549; for CC50: A549, read-out: LC50 A549
[13] = tested on: IGROV; assay: cells; settings: for GI50: read-out: GI50 IGROV; for CC50: read-out: LC50 IGROV
[14] = tested on: HT29; assay: cells; settings: Homo sapiens; for GI50: HT-29, read-out: GI50 HT29; for CC50: HT-29, read-out: LC50 HT29
[15] = tested on: HT29; settings: Colon
[16] = tested on: IGROV-ET; assay: cells; settings: for GI50: read-out: GI50 IGROV-ET; for CC50: read-out: LC50 IGROV-ET
[17] = tested on: IGROV; settings: Ovary
[18] = tested on: DU-145; settings: Prostate
[19] = Antibacterial and antitumoral activities, general statements; settings: compared with safracin A / safracin B
[20] = tested on: LN-caP; settings: Prostate
[21] = tested on: LOVO-DOX; assay: cells; settings: for GI50: read-out: GI50 LOVO-DOX; for CC50: read-out: LC50 LOVO-DOX
[22] = tested on: A549; settings: NSCL
[23] = tested on: HELA-APL; assay: cells; settings: for GI50: read-out: GI50 HELA-APL; for CC50: read-out: LC50 HELA-APL
[24] = tested on: PANC1; assay: cells; settings: Homo sapiens; for GI50: PANC-1, read-out: GI50 PANC1; for CC50: PANC-1, read-out: LC50 PANC1
[25] = tested on: LOVO-DOX; settings: Colon
[26] = tested on: HELA-APL; settings: Cervix
[27] = tested on: SK-MEL-28; assay: cells; settings: Homo sapiens; for GI50: SK-MEL-28, read-out: GI50 SK-MEL-28; for CC50: SK-MEL-28, read-out: LC50 SK-MEL-28
[28] = tested on: K-562; assay: cells; settings: Homo sapiens; for GI50: K562, read-out: GI50 K-562; for CC50: K562, read-out: LC50 K-562
[29] = tested on: HELA; settings: Cervix
[30] = tested on: Bacillus subtilis; assay: Antimicrobial activity on solid medium, disk; assay type: cell-based; settings: 10 μg/disk (6 mm diameter)
Method: Antimicrobial activity: On solid medium Bacillus subtilis. 10 μg/disk (6 mm diameter): 10 mm inhibition zone Spectroscopic Data: […]

COc1c(C)cc2c(c1O)C1C3Cc4cc(C)c(OC)c(O)c4C(CNC(=O)C(C)N)N3CC(C2)N1C (stereo not shown) [Safracin P-22A]
TGI SK-BR3 [1]: >19.6 µM
GI50 [2]: 4.19 µM
CC50 [2]: > 19.6 µM
GI50 [3]: > 19.6 µM
CC50 [3]: > 19.6 µM
GI50 [4]: 8.75 µM
CC50 [4]: > 19.6 µM
GI50 [5]: 12.7 µM
CC50 [5]: > 19.6 µM
TGI K-562 [6]: 7.93 µM
TGI IGROV-ET [7]: >19.6 µM
TGI LOVO [8]: >19.6 µM
TGI PANC1 [9]: >19.6 µM
TGI SK-MEL-28 [10]: 13.3 µM
GI50 [11]: > 19.6 µM
CC50 [11]: > 19.6 µM
GI50 [12]: > 19.6 µM
CC50 [12]: > 19.6 µM
GI50 [13]: 7.74 µM
CC50 [13]: > 19.6 µM
GI50 [14]: 12.6 µM
CC50 [14]: > 19.6 µM
TGI HT29 [15]: >19.6 µM
GI50 [16]: 13 µM
CC50 [16]: > 19.6 µM
TGI IGROV [17]: 19.6 µM
TGI DU-145 [18]: >19.6 µM
antibacterial and antitumoral activities (in words) [19]: appear to loose their activity
TGI LN-caP [20]: 9.26 µM
GI50 [21]: > 19.6 µM
CC50 [21]: > 19.6 µM
TGI A549 [22]: >19.6 µM
GI50 [23]: 7.66 µM
CC50 [23]: > 19.6 µM
GI50 [24]: > 19.6 µM
CC50 [24]: > 19.6 µM
TGI LOVO-DOX [25]: >19.6 µM
TGI HELA-APL [26]: 19.6 µM
GI50 [27]: 5.93 µM
CC50 [27]: > 19.6 µM
GI50 [28]: 3.15 µM
CC50 [28]: 19.6 µM
TGI HELA [29]: >19.6 µM
Antimicrobial activity: inhibition zone [30]: NO ACTIVE

COc1c(C)cc2c(c1O)C1C3Cc4cc(C)c(OC)c(O)c4C(CNC(=O)C(C)N)N3C(O)C(C2)N1C (stereo not shown) [Safracin P-22B]
TGI SK-BR3 [1]: 2.28 µM
GI50 [2]: 0.308 µM
CC50 [2]: 1.2 µM
GI50 [3]: 4.58 µM
CC50 [3]: 16.2 µM
GI50 [4]: 0.761 µM
CC50 [4]: 7.42 µM
GI50 [5]: 0.824 µM
CC50 [5]: 8.85 µM
TGI K-562 [6]: 0.467 µM
TGI IGROV-ET [7]: 7.04 µM
TGI LOVO [8]: 6.84 µM
TGI PANC1 [9]: 11.7 µM
TGI SK-MEL-28 [10]: 0.999 µM
GI50 [11]: 2.54 µM
CC50 [11]: 18.4 µM
GI50 [12]: 4.71 µM
CC50 [12]: 16.6 µM
GI50 [13]: 0.849 µM
CC50 [13]: 12.1 µM
GI50 [14]: 1.01 µM
CC50 [14]: 18.6 µM
TGI HT29 [15]: 2.75 µM
GI50 [16]: 3.02 µM
CC50 [16]: 16.5 µM
TGI IGROV [17]: 2.3 µM
TGI DU-145 [18]: 8.62 µM
antibacterial and antitumoral activities (in words) [19]: appear to loose their activity
TGI LN-caP [20]: 0.608 µM
GI50 [21]: 6.95 µM
CC50 [21]: > 19 µM
TGI A549 [22]: 8.83 µM
GI50 [23]: 0.465 µM
CC50 [23]: 1.86 µM
GI50 [24]: 4.77 µM
CC50 [24]: > 19 µM
TGI LOVO-DOX [25]: 19 µM
TGI HELA-APL [26]: 0.932 µM
GI50 [27]: 0.52 µM
CC50 [27]: 2.01 µM
GI50 [28]: 0.113 µM
CC50 [28]: 1.84 µM
TGI HELA [29]: 1.83 µM
zone of inhibition at 10 µg/disc ([30]; Bacillus subtilis): 10 mm

Source: patent US7723068B2, “Gene cluster involved in safracin biosynthesis and its uses for genetic engineering” (PharmaMar, S.A., priority 2002, dated 2010)
